Reference: US7781446B2, “Use of CCI-779 as an antineoplastic agent” (Wyeth LLC, priority 2000, dated 2010)

Assays:
[1] = tested on: advanced cancer (solid tumors and lymphomas) refractory to standard therapy; assay: Phase I clinical trial, 30 minute i.v. infusion daily for 5 days every two to three weeks; type: in vivo, human
Description: (§1) Two single agent (CCI-779) Phase I clinical trials have been conducted. In the first study, CCI-779 was administered as a 30 minute i.v. infusion daily for 5 days, every two to three weeks. In the second study, CCI-779 was administered as a 30 minute i.v. infusion, once weekly. Both trials were open label, ascending dose, single-arm, multicenter studies. Patients were allowed to continue treatment as long as the CCI-779 was tolerated and there was no evidence of obvious disease progression. The following eligibility criteria were used:
(§2) Inclusion Criteria • 1. Patients with a histologic diagnosis of advanced cancer (solid tumors and, in the first study, lymphomas) who are refractory to standard therapy or for whom standard therapy is not appropriate. • 2. Measurable or evaluable disease. • 3. At least 3 weeks since prior chemotherapy and/or radiation therapy (6 weeks since nitrosoureas or mitomycin C). • 4. At least 4 weeks since any other investigational agent. • 5. Age at least 18 years old. • 6. Adequate bone marrow, renal, and hepatic function. • 7. Serum cholesterol<350 mg/dL and triglycerides […]. • 8. ECOG performance status 0-2. • 9. Life expectancy of at least 3 months. • 10. Signed, dated, witnessed written informed consent.
(§3) A total of 63 patients and 24 patients were enrolled in first and second studies, respectively. Dose levels ranged from 0.75-24 mg/m^2 and 7.5-220 mg/m^2, with the daily×5 every 2 weeks and weekly schedules, respectively.

[2] = tested on: Renal tumor line SN12-C; assay: In vitro growth of human renal tumor cells, 3H-thymidine uptake; type: cell-based; details: 48 hours with drug
Description: (§4) In vitro test procedure: Renal tumor lines HTB-44 and CRL-1161 were obtained from the American Tissue Culture Collection (ATCC), Bethesda, Md. SN12-C line was obtained from Dr. J. Fidler, M. D. Anderson Hospital, Houston, Tex. Cells were plated in MEM (Gibco) supplemented with 2 mM glutamine, 1 mM sodium pyruvate, 5 ml penicillin-streptomycin solution, 1 mM non-essential amino acid solution, 10% fetal bovine solution. Cells (5×10^3) were plated in 96 well plates with a final volume of […] and incubated for 24 hours at 37° C. Log dilutions of CCI-779 beginning at 100 μg/ml were then added to the cultures for 48 hours. Over the last 5 hours, cells were pulsed with 1 μci ^3H-thymidine (New England Nuclear, 6.7 ci/m Mol). Cells were then harvested and the degree of thymidine uptake determined by liquid scintillation spectrometry. The IC50 was determined as the concentration that produced 50% of the maximum uptake of thymidine in control untreated cells.
(§5) Human renal cell tumors were cultured in vitro in the presence or absence of CCI-779 for 3 days and the effect on growth determined by ^3H-thymidine incorporation of control versus treated cells.

[3] = tested on: Renal tumor line CRL-1161; assay: as above; type: cell-based; details: 48 hours with drug
Description: as §4, §5

[4] = tested on: Renal tumor line HTB-44; assay: as above; type: cell-based; details: 48 hours with drug
Description: as §4, §5

[5] = tested on: advanced cancer (solid tumors) refractory to standard therapy; assay: Phase I clinical trial, 30 minute i.v. infusion once weekly; type: in vivo, human; details: for number of partial responses: weekly dosage schedule
Description: as §1, §2, §3

[6] = tested on: CRL-1161 human renal tumor cells; assay: Human renal tumor cell xenograft in nude mice; type: in vivo, Balb/c nu/nu mice; details: CRL-1161 xenograft; for Tumor Mass / % T/C (Treated/Control × 100): 25 mg/kg oral
Description: (§6) In vivo test procedure: Female Balb/c nu/nu mice were obtained from Charles River Labs, Wilmington, Del., at 6-8 weeks of age. Mice (n=10/group) were injected sc with 5×10^6 cells resuspended in a 50% solution of Matrigel (BD Biosciences) and tumors allowed to develop. When tumor size reached 100 mg, mice were treated orally with CCI-779 at 25 mg/kg. CCI-779 was dosed for 5 consecutive days with repeated 14 day cycles throughout the duration of the experiment. The formulation used for CCI-779 was a 50% ethanol, 49% phosal, 1% tween 80 vehicle for resuspending CCI-779, where the stock was resuspended into a 1:10 dilution of the vehicle prior to dosing. Tumor growth was evaluated using a vernier caliper and volume (l×w×h) was converted to mass using the formula: 1×w^2/2.
(§7) The effect of CCI-779 in two human renal lines (HTB-44 and CRL-1161) was evaluated in vivo by engrafting tumor cells on the flanks of nude mice. Once tumors were established at a size of about 100 mg, mice were treated with CCI-779 or a vehicle control.

[7] = tested on: HTB-44 human renal tumor cells; assay: Human renal tumor cell xenograft in nude mice; type: in vivo, Balb/c nu/nu mice; details: HTB-44 xenograft; for Tumor Mass / % T/C (Treated/Control × 100): 25 mg/kg oral
Description: as §6, §7

[8] = patients having soft tissue sarcoma, daily×5 dosage schedule
[9] = renal cancer patients, daily×5 schedule
[10] = Homo sapiens, read-out: CCI-779 IC50 (50% growth inhibitory concentration)
[11] = patients having renal cancer, weekly schedule
[12] = 5 consecutive days, 14 day cycles, day 0
[13] = 25 mg/kg, versus vehicle control

- CCI-779 IC50 (50% growth inhibitory concentration) [2]: low nM range
- IC50 ([2]; Homo sapiens, SN12C, read-out: CCI-779 IC50 (50% growth inhibitory concentration)): 5.5 nM
- CCI-779 IC50 (50% growth inhibitory concentration) [3]: low nM range
- IC50 [3, 10]: 2 nM
- CCI-779 IC50 (50% growth inhibitory concentration) [4]: low nM range
- IC50 [4, 10]: 5 nM
SMILES: CO[C@H]1C[C@@H]2CC[C@@H](C)[C@@](O)(O2)C(=O)C(=O)N2CCCC[C@H]2C(=O)O[C@H]([C@H](C)C[C@@H]2CC[C@@H](OC(=O)C(C)(CO)CO)[C@H](OC)C2)CC(=O)[C@H](C)/C=C(\C)[C@@H](O)[C@@H](OC)C(=O)[C@H](C)C[C@H](C)/C=C/C=C/C=C/1C [CCI-779, rapamycin 42-ester with 3-hydroxy-2-(hydroxymethyl)-2-methylpropionic acid]
- number of minor responses ([1]; patients having cervical cancer, daily×5 dosage schedule): one
- number of partial responses ([1]; patients having non-small cell lung cancer, daily×5 dosage schedule): one
- number of minor responses [1, 8]: 2
- number of possible partial responses [1, 8]: 1
- number of stable disease [1, 8]: 1
- number of unconfirmed minor responses ([1]; patients having uterine cancer, daily×5 dosage schedule): one
- duration of stable disease [1, 9]: approximately 5 months
- number of minor responses [1, 9]: 1
- number of stable disease (<25% increase to <25% reduction in tumor size) [1, 9]: 1
- number of unconfirmed minor responses [1, 9]: 1
- number of minor responses (≧25% but<50% reduction in tumor size) [5, 11]: 2
- number of partial responses (≧50% reduction in tumor size) [5, 11]: 1
- number of partial responses ([5]; patients with breast cancer): one
- number of partial responses ([5]; patients with neuroendocrine tumor of the lung): one
- Tumor Mass [6, 12]: 272 ± 14 mg
- % T/C (Treated/Control × 100) ([6]; day 0): 100%
- % T/C (Treated/Control × 100) ([6]; day 7): 62%
- Tumor Mass ([6]; day 7): 219 ± 16 mg
- % T/C (Treated/Control × 100) ([6]; day 21): 60%
- Tumor Mass ([6]; day 21): 226 ± 17 mg
- % T/C (Treated/Control × 100) ([6]; day 35): 42%
- Tumor Mass ([6]; day 35): 200 ± 21 mg
- % T/C (Treated/Control × 100) ([6]; day 49): 42%
- Tumor Mass ([6]; day 49): 229 ± 28 mg
- % T/C (Treated/Control × 100) ([6]; day 55): 53%
- Tumor Mass ([6]; day 55): 268 ± 30 mg
- inhibition of tumor cell growth in the mice [6, 13]: significant inhibition of tumor cell growth
- Tumor Mass [7, 12]: 290 ± 15 mg
- % T/C (Treated/Control × 100) ([7]; day 0): 101%
- % T/C (Treated/Control × 100) ([7]; day 7): 71%
- Tumor Mass ([7]; day 7): 156 ± 13 mg
- % T/C (Treated/Control × 100) ([7]; day 21): 41%
- Tumor Mass ([7]; day 21): 252 ± 48 mg
- % T/C (Treated/Control × 100) ([7]; day 35): 41%
- Tumor Mass ([7]; day 35): 453 ± 85 mg
- % T/C (Treated/Control × 100) ([7]; day 49): 48%
- Tumor Mass ([7]; day 49): 980 ± 155 mg
- % T/C (Treated/Control × 100) ([7]; day 55): 44%
- Tumor Mass ([7]; day 55): 1050 ± 183 mg
- inhibition of tumor cell growth in the mice [7, 13]: significant inhibition of tumor cell growth
